Reference: US20120010179A1, “Methods of using a thiazole derivative” (priority 2006, published 2012)

How the values were obtained:
[1] = test system: lipopolysaccharide (LPS)-induced cytokine production (TNF-α, IL-1β, IL-6); settings: tetomilast pretreatment; human whole blood from normal volunteers in vitro; cited from earlier work
patients with COPD = assay: Pulmonary function tests (trough and peak FEV1), tetomilast with Advair Diskus 250/50, parallel group study (Example 2); format: in vivo, human; parameters: Estimated Treatment Effect, change from baseline in trough FEV1 (tetomilast versus placebo) / Estimated Treatment Effect in Baseline Mean trough FEV1, Day 7 predose (tetomilast versus placebo) / Estimated Treatment Effect, change from baseline in peak FEV1 (tetomilast versus placebo): unit not given here
Experimental: Pulmonary function tests were conducted throughout the study to monitor the subjects' respiratory status. Flow volume curves were collected via spirometry. Combivent® (Boehringer Ingleheim Pharmaceuticals, Inc., Ridgefield Conn.), which was used for short-acting rescues as needed throughout the studies described below, was withheld for 6 hours prior to any spirometric testing. Spirometry testing was performed at screening, baseline (Day 0), and at specific times during the treatment period. Each subject could have up to 5 spirometric readings at any study time point. Spirometric readings were performed using equipment from the central provider, Quantum Research, Inc. (Louisville, Colo.). All spirometry readings were recorded and sent to Quantum Research, Inc. for analysis
For the spirometric readings, the best effort was reported as follows. The highest acceptable forced expiratory volume in one second (FEV1) value was selected as the “best” of the given test session. If two or more FEV1 values were tied as highest, the sum of FEV1 and forced vital capacity (FVC) for those efforts was used. If both conditions were equal between the two efforts, the values reported were taken from the effort that occurred first, chronologically, based on date and time of the effort.
This study was a multicenter, randomized, double-blind, placebo-controlled, parallel group, outpatient, phase 1B study of Advair Diskus® 250/50 (fluticasone propionate and salmeterol xinafoate, GlaxoSmithKline, Research Triangle Park, N.C.) administered concomitantly with oral placebo or 50 mg tetomilast (2×25 mg tablets) in patients with COPD. All patients underwent a minimum 28-day washout from short-acting inhaled corticosteroids, long-acting bronchodialators, and/or continuous oxygen therapy (>16 hours per day), and a minimum 7-day washout from beta2-agonists and/or oral theophylline. Patients were randomly assigned to one of the two treatment arms (oral tetomilast 50 mg or placebo) prior to dosing on Day 1, and were distributed 1:1 between the two groups according to a computer-generated randomization code provided by the Otsuka Maryland Research Institute (OMRI) Biostatistics Department. Randomization was performed using a central IVRS system and was centralized across study centers.
Subjects received 7 days of treatment with tetomilast 50 mg or placebo oral dose in treatment period 1. During treatment period 2, Days 8 through 35, concomitant inhaled Advair Diskus® 250/50 was added to the treatment regimen.
Subjects were instructed to take their oral study medication (tetomilast 50 mg or placebo) QD with 8 ounces of water immediately after breakfast for all study treatment days. Subjects assigned to the placebo group received two placebo tablets QD. Subjects assigned to the tetomilast group received 2×25 mg tetomilast tablets QD. On study Days 1-7, 14, 21, 28, and 35, subjects consumed their oral study medication (tetomilast 50 mg or placebo) at the clinic in the presence of the study staff.
The inhaled Advair Diskus® 250/50 was self-administered by subjects on all study days between Days 8 and 35, except for Days 14, 21, 28, and 35, when the medication was administered at the clinic in the presence of the study staff. Advair Diskus® 250/50 was administered twice daily (BID). The morning dose coincided with the timing of the oral dose (tetomilast 50 mg or placebo). The evening dose was taken 12 hours later. Dosing times were recorded in subject diaries.
Combivent® (Boehringer Ingleheim Pharmaceuticals, Inc., Ridgefield, Conn.) was provided by the sponsor for short-acting rescue use during the study. Combivent® was withheld for 6 hours prior to any PFTs. Combivent® was supplied as a metered-dose inhaler. Each actuation meters 21 μg of ipratropium bromide and 120 μg of albuterol sulfate from the valve and delivers […] of ipratropium bromide and 103 μg of albuterol sulfate (equivalent to 90 μg albuterol base) from the mouthpiece. […]

[2] = Baseline Day 1 predose, Day 7, before Advair Diskus
[3] = Baseline Day 1 predose, Day 14, both with Advair Diskus 250/50 BID
[4] = Baseline Day 1 predose, Day 21, both with Advair Diskus 250/50 BID
[5] = Baseline Day 1 predose, Day 28, both with Advair Diskus 250/50 BID
[6] = Baseline Day 1 predose, Day 35, both with Advair Diskus 250/50 BID

## CCOc1ccc(-c2nc(-c3cccc(C(=O)O)n3)cs2)cc1OCC [Tetomilast, 2-(3,4-diethoxyphenyl)-4-(2-carboxy-6-pyridyl)thiazole]
[1]
  LPS-induced cytokine production (TNF-α, IL-1β, IL-6): dose-related suppression
Patients with COPD; Advair Diskus 250/50 with tetomilast versus Advair Diskus 250/50 alone, days 8 through 35
  effect on inhaled Advair Diskus 250/50 response (FEV1), exploratory repeated measures analysis: possible potentiation of the effect of inhaled fluticasone propionate plus salmeterol
Patients with COPD; Baseline Day 1 predose, Day 1, before Advair Diskus
  Estimated Treatment Effect, change from baseline in peak FEV1 (tetomilast versus placebo): 0.08
Patients with COPD; Baseline Day 1 predose, Day 2, before Advair Diskus
  Estimated Treatment Effect, change from baseline in trough FEV1 (tetomilast versus placebo): 0.11
Patients with COPD; Baseline Day 1 predose, Day 3, before Advair Diskus
  Estimated Treatment Effect, change from baseline in trough FEV1 (tetomilast versus placebo): 0.07
Patients with COPD; Baseline Day 1 predose, Day 4, before Advair Diskus
  Estimated Treatment Effect, change from baseline in trough FEV1 (tetomilast versus placebo): 0.12
Patients with COPD; Baseline Day 1 predose, Day 5, before Advair Diskus
  Estimated Treatment Effect, change from baseline in trough FEV1 (tetomilast versus placebo): 0.13
Patients with COPD; Baseline Day 1 predose, Day 6, before Advair Diskus
  Estimated Treatment Effect, change from baseline in trough FEV1 (tetomilast versus placebo): 0.11
Patients with COPD; [2]
  Estimated Treatment Effect, change from baseline in peak FEV1 (tetomilast versus placebo): 0.23
  Estimated Treatment Effect, change from baseline in trough FEV1 (tetomilast versus placebo): 0.13
Patients with COPD; [3]
  Estimated Treatment Effect, change from baseline in peak FEV1 (tetomilast versus placebo): 0.21
  Estimated Treatment Effect, change from baseline in trough FEV1 (tetomilast versus placebo): 0.16
Patients with COPD; [4]
  Estimated Treatment Effect, change from baseline in peak FEV1 (tetomilast versus placebo): 0.30
  Estimated Treatment Effect, change from baseline in trough FEV1 (tetomilast versus placebo): 0.18
Patients with COPD; [5]
  Estimated Treatment Effect, change from baseline in peak FEV1 (tetomilast versus placebo): 0.28
  Estimated Treatment Effect, change from baseline in trough FEV1 (tetomilast versus placebo): 0.21
Patients with COPD; [6]
  Estimated Treatment Effect, change from baseline in peak FEV1 (tetomilast versus placebo): 0.21
  Estimated Treatment Effect, change from baseline in trough FEV1 (tetomilast versus placebo): 0.15
Patients with COPD; Baseline Day 7 predose, Day 14, both with Advair Diskus 250/50 BID
  Estimated Treatment Effect, change from baseline in trough FEV1 (tetomilast versus placebo): 0.02
Patients with COPD; Baseline Day 7 predose, Day 21, both with Advair Diskus 250/50 BID
  Estimated Treatment Effect, change from baseline in trough FEV1 (tetomilast versus placebo): 0.05
Patients with COPD; Baseline Day 7 predose, Day 28, both with Advair Diskus 250/50 BID
  Estimated Treatment Effect, change from baseline in trough FEV1 (tetomilast versus placebo): 0.06
Patients with COPD; Baseline Day 7 predose, Day 35, both with Advair Diskus 250/50 BID
  Estimated Treatment Effect, change from baseline in trough FEV1 (tetomilast versus placebo): 0.02
Patients with COPD; Day 7 predose, before Advair Diskus
  Estimated Treatment Effect in Baseline Mean trough FEV1, Day 7 predose (tetomilast versus placebo): 0.38
Patients with COPD; day-1 baseline, all time points through day-7 except day-3, and day-14 through day-35 (with Advair Diskus 250/50)
  Trough FEV1 compared with placebo: statistically significantly improved
Patients with COPD; days 7, 21 and 28, approached statistical significance at day 14 and day 35
  peak and average FEV1 improvements compared with placebo: statistically significant
